Article PMC5218480 (PLoS ONE, 2017)

Tested on: MV-4-11 cells
Test: Gene expression microarray analysis (Affymetrix PrimeView) and GSEA
Format: cell-based, human
Design: RFU PODN (11730768_x_at) / Fold change /veh PODN (11730768_x_at) / RFU LINC00158 (11744669_a_at) / Fold change /veh LINC00158 (11744669_a_at) / RFU DUSP10 (11751237_a_at) / Fold change /veh DUSP10 (11751237_a_at) / RFU ID3 (11757404_x_at) / Fold change /veh ID3 (11757404_x_at) / RFU PLEKHG5 (11737974_s_at) / Fold change /veh PLEKHG5 (11737974_s_at) / RFU LRRC4B (11730491_at) / Fold change /veh LRRC4B (11730491_at) / RFU GIMAP4 (11747438_a_at) / Fold change /veh GIMAP4 (11747438_a_at) / RFU KRT8 (11758183_x_at) / Fold change /veh KRT8 (11758183_x_at) / RFU CNN1 (11734310_a_at) / Fold change /veh CNN1 (11734310_a_at) / RFU VPS37D (11726825_at) / Fold change /veh VPS37D (11726825_at) / RFU C10orf10 (11716522_x_at) / Fold change /veh C10orf10 (11716522_x_at) / RFU KIR2DL2 /// KIR2DL4 /// KIR2DL5A /// KIR2DL5B /// KIR2DS1 /// KIR2DS2 /// KIR2DS3 /// KIR2DS4 /// KIR3DL3 /// KIR3DL3 /// KIR3DS1 (11738374_at) / Fold change /veh KIR2DL2 /// KIR2DL4 /// KIR2DL5A /// KIR2DL5B /// KIR2DS1 /// KIR2DS2 /// KIR2DS3 /// KIR2DS4 /// KIR3DL3 /// KIR3DL3 /// KIR3DS1 (11738374_at) / RFU C1QL1 (11718748_at) / Fold change /veh C1QL1 (11718748_at) / RFU TMPRSS4 (11747572_a_at) / Fold change /veh TMPRSS4 (11747572_a_at) / RFU HAMP (11756126_x_at) / Fold change /veh HAMP (11756126_x_at) / RFU RNFT2 (11725882_a_at) / Fold change /veh RNFT2 (11725882_a_at) / RFU NR4A2 (11747474_a_at) / Fold change /veh NR4A2 (11747474_a_at) / RFU ABCC12 (11746883_a_at) / Fold change /veh ABCC12 (11746883_a_at) / RFU TMEM136 (11760407_x_at) / Fold change /veh TMEM136 (11760407_x_at) / RFU CLDN22 /// WWC2 (11732394_at) / Fold change /veh CLDN22 /// WWC2 (11732394_at) / RFU HLA-DPB1 (11760878_x_at) / Fold change /veh HLA-DPB1 (11760878_x_at) / RFU SPINT1 (11716480_a_at) / Fold change /veh SPINT1 (11716480_a_at) / RFU GAP43 (11754022_s_at) / Fold change /veh GAP43 (11754022_s_at) / RFU A4GNT (11735810_at) / Fold change /veh A4GNT (11735810_at) / RFU PRB3 (11715151_x_at) / Fold change /veh PRB3 (11715151_x_at) / RFU TUBB4B (11761932_at) / Fold change /veh TUBB4B (11761932_at) / RFU CAPN14 (11732068_a_at) / Fold change /veh CAPN14 (11732068_a_at) / RFU TMCC2 (11721928_a_at) / Fold change /veh TMCC2 (11721928_a_at) / RFU IRGQ (11745062_a_at) / Fold change /veh IRGQ (11745062_a_at) / RFU FAM174B (11720279_a_at) / Fold change /veh FAM174B (11720279_a_at) / RFU TMPRSS4 (11748680_a_at) / Fold change /veh TMPRSS4 (11748680_a_at) / RFU FAM212B (11763350_a_at) / Fold change /veh FAM212B (11763350_a_at) / RFU PLEKHG5 (11743358_a_at) / Fold change /veh PLEKHG5 (11743358_a_at) / RFU ZSCAN30 (11745921_a_at) / Fold change /veh ZSCAN30 (11745921_a_at) / RFU CMKLR1 (11741424_a_at) / Fold change /veh CMKLR1 (11741424_a_at) / RFU LOC101060620 /// MAPK8IP1 (11723275_at) / Fold change /veh LOC101060620 /// MAPK8IP1 (11723275_at) / RFU SPTSSB (11747773_x_at) / Fold change /veh SPTSSB (11747773_x_at) / RFU PRSS12 (11739890_at) / Fold change /veh PRSS12 (11739890_at) / RFU BIN1 (11741810_x_at) / Fold change /veh BIN1 (11741810_x_at) / RFU WNT11 (11732464_a_at) / Fold change /veh WNT11 (11732464_a_at) / RFU C10orf10 (11716521_a_at) / Fold change /veh C10orf10 (11716521_a_at) / RFU C5orf56 (11738089_at) / Fold change /veh C5orf56 (11738089_at) / RFU CYB561 (11721691_x_at) / Fold change /veh CYB561 (11721691_x_at) / RFU ANKRD19P (11752326_a_at) / Fold change /veh ANKRD19P (11752326_a_at) / RFU OR2T12 /// OR2T33 /// OR2T8 (11738714_s_at) / Fold change /veh OR2T12 /// OR2T33 /// OR2T8 (11738714_s_at) / RFU VCAN (11748164_a_at) / Fold change /veh VCAN (11748164_a_at) / RFU JSRP1 (11732532_at) / Fold change /veh JSRP1 (11732532_at) / RFU KRTAP10-11 (11738290_x_at) / Fold change /veh KRTAP10-11 (11738290_x_at) / RFU MYO3A (11730013_a_at) / Fold change /veh MYO3A (11730013_a_at) / RFU EBF3 (11725865_a_at) / Fold change /veh EBF3 (11725865_a_at) / RFU CAMK2N1 (11719241_x_at) / Fold change /veh CAMK2N1 (11719241_x_at) / RFU C5orf56 (11738088_a_at) / Fold change /veh C5orf56 (11738088_a_at) / RFU OLFML3 (11715873_a_at) / Fold change /veh OLFML3 (11715873_a_at) / RFU LOC100653217 /// NTM (11731650_a_at) / Fold change /veh LOC100653217 /// NTM (11731650_a_at) / RFU MAPK11 (11762145_a_at) / Fold change /veh MAPK11 (11762145_a_at) / RFU FIZ1 (11724087_x_at) / Fold change /veh FIZ1 (11724087_x_at) / RFU OASL (11726364_x_at) / Fold change /veh OASL (11726364_x_at) / RFU SOX15 (11748057_x_at) / Fold change /veh SOX15 (11748057_x_at) / RFU CD79A (11719716_a_at) / Fold change /veh CD79A (11719716_a_at) / RFU HIST1H1D (11736915_at) / Fold change /veh HIST1H1D (11736915_at) / RFU CASKIN2 (11723855_a_at) / Fold change /veh CASKIN2 (11723855_a_at) / RFU LOC730098 (11760151_x_at) / Fold change /veh LOC730098 (11760151_x_at) / RFU OR4N2 (11742367_at) / Fold change /veh OR4N2 (11742367_at) / RFU PRRT2 (11749266_a_at) / Fold change /veh PRRT2 (11749266_a_at) / RFU SNX32 (11753110_a_at) / Fold change /veh SNX32 (11753110_a_at) / RFU CDHR5 (11726645_a_at) / Fold change /veh CDHR5 (11726645_a_at) / RFU RCAN1 (11760418_a_at) / Fold change /veh RCAN1 (11760418_a_at) / RFU FAM167A (11723789_a_at) / Fold change /veh FAM167A (11723789_a_at) / RFU FAM26E (11764081_at) / Fold change /veh FAM26E (11764081_at) / RFU ISYNA1 (11749810_s_at) / Fold change /veh ISYNA1 (11749810_s_at) / RFU ACY1 (11761880_at) / Fold change /veh ACY1 (11761880_at) / RFU 11764098_at / Fold change /veh 11764098_at / RFU SAMD14 (11745864_x_at) / Fold change /veh SAMD14 (11745864_x_at) / RFU NPB (11741838_a_at) / Fold change /veh NPB (11741838_a_at) / RFU TMPRSS6 (11731388_a_at) / Fold change /veh TMPRSS6 (11731388_a_at) / RFU KRTAP10-2 (11738614_at) / Fold change /veh KRTAP10-2 (11738614_at) / RFU ARHGAP8 /// PRR5-ARHGAP8 (11727945_x_at) / Fold change /veh ARHGAP8 /// PRR5-ARHGAP8 (11727945_x_at) / RFU KRTAP5-7 /// NADSYN1 (11734609_at) / Fold change /veh KRTAP5-7 /// NADSYN1 (11734609_at) / RFU RASL12 (11751679_a_at) / Fold change /veh RASL12 (11751679_a_at) / RFU CDKN2B (11736163_a_at) / Fold change /veh CDKN2B (11736163_a_at) / RFU PRF1 (11729649_at) / Fold change /veh PRF1 (11729649_at) / RFU, ZNF638 /// ZNF638-IT1 / Fold change vs veh, ZNF638 /// ZNF638-IT1 / RFU, PANK3 / Fold change vs veh, PANK3 / RFU, SH3YL1 / Fold change vs veh, SH3YL1 / RFU, ZEB2 / Fold change vs veh, ZEB2 / RFU, NRIP1 / Fold change vs veh, NRIP1 / RFU, PTTG1IP / Fold change vs veh, PTTG1IP / RFU, CAPN2 / Fold change vs veh, CAPN2 / RFU, MED14 / Fold change vs veh, MED14 / RFU, SNORA58 / Fold change vs veh, SNORA58 / RFU, C1orf63 / Fold change vs veh, C1orf63 / RFU, LRRFIP1 / Fold change vs veh, LRRFIP1 / RFU, NDUFAF7 / Fold change vs veh, NDUFAF7 / RFU, SLC12A2 / Fold change vs veh, SLC12A2 / RFU, IBTK / Fold change vs veh, IBTK / RFU, ESF1 / Fold change vs veh, ESF1 / Fold change vs veh, TMEM50B / RFU, TAOK1 / Fold change vs veh, TAOK1 / RFU, ACBD3 / Fold change vs veh, ACBD3 / RFU, TMA16 / Fold change vs veh, TMA16 / RFU, RWDD3 / Fold change vs veh, RWDD3 / RFU, BCAT1 / Fold change vs veh, BCAT1 / RFU, EDEM3 / Fold change vs veh, EDEM3 / RFU, TMEM33 / Fold change vs veh, TMEM33 / RFU, WDR75 / Fold change vs veh, WDR75 / RFU, AHCTF1 / Fold change vs veh, AHCTF1 / RFU, TFRC / Fold change vs veh, TFRC / RFU, ZDHHC17 / Fold change vs veh, ZDHHC17 / RFU, NOM1 / Fold change vs veh, NOM1 / RFU, ARL8B / Fold change vs veh, ARL8B / RFU, ZBTB11 / Fold change vs veh, ZBTB11 / RFU, TAMM41 / Fold change vs veh, TAMM41 / RFU, KIAA1704 /// LOC100996395 / Fold change vs veh, KIAA1704 /// LOC100996395 / RFU, ING1 / Fold change vs veh, ING1 / RFU, TRMT61B / Fold change vs veh, TRMT61B / RFU, FUBP3 / Fold change vs veh, FUBP3 / RFU, TP53 / Fold change vs veh, TP53 / RFU, TNKS2 / Fold change vs veh, TNKS2 / RFU, ZFP14 / Fold change vs veh, ZFP14 / RFU, ACTR2 / Fold change vs veh, ACTR2 / RFU, PPP3R1 / Fold change vs veh, PPP3R1 / RFU, PIK3R1 / Fold change vs veh, PIK3R1 / RFU, HNRNPA1 / Fold change vs veh, HNRNPA1 / RFU, RNF170 / Fold change vs veh, RNF170 / RFU, ZNF28 / Fold change vs veh, ZNF28 / RFU, RNGTT / Fold change vs veh, RNGTT / RFU, OGT / Fold change vs veh, OGT / RFU, BRD1 / Fold change vs veh, BRD1 / RFU, MARS / Fold change vs veh, MARS / RFU, ZNF655 / Fold change vs veh, ZNF655 / RFU, FAHD1 / Fold change vs veh, FAHD1 / RFU, BDP1 / Fold change vs veh, BDP1 / RFU, LRRCC1 / Fold change vs veh, LRRCC1 / RFU, ARID1A / Fold change vs veh, ARID1A / RFU, ZNF146 / Fold change vs veh, ZNF146 / RFU, ZNF330 / Fold change vs veh, ZNF330 / RFU, GPN3 / Fold change vs veh, GPN3 / RFU, C9orf123 / Fold change vs veh, C9orf123 / RFU, N4BP2L2 / Fold change vs veh, N4BP2L2 / RFU, ARFIP1 / Fold change vs veh, ARFIP1 / RFU, FAM179B / Fold change vs veh, FAM179B / RFU, BCL10 / Fold change vs veh, BCL10 / RFU, UHRF1BP1L / Fold change vs veh, UHRF1BP1L / RFU, BET1 / Fold change vs veh, BET1 / RFU, CNOT2 / Fold change vs veh, CNOT2 / RFU, ZNF268 / Fold change vs veh, ZNF268 / Fold change vs veh, ZNF507 / RFU, DGCR2 / Fold change vs veh, DGCR2 / RFU, WDSUB1 / Fold change vs veh, WDSUB1 / Fold change vs veh, HSP90B1 /// MIR3652 / RFU, ADSS / Fold change vs veh, ADSS / RFU, GK / Fold change vs veh, GK / RFU, ZNF148 / Fold change vs veh, ZNF148 / RFU, TAF9 / Fold change vs veh, TAF9 / RFU, SLC1A5 / Fold change vs veh, SLC1A5 / RFU, SLMO2 / Fold change vs veh, SLMO2 / RFU, ABCC4 / Fold change vs veh, ABCC4 / RFU, LOC101060439 /// RAP1B / Fold change vs veh, LOC101060439 /// RAP1B / RFU, RFX7 / Fold change vs veh, RFX7 / RFU, GTPBP10 / Fold change vs veh, GTPBP10 / RFU, CNEP1R1 / Fold change vs veh, CNEP1R1 / RFU, BIVM-ERCC5 /// ERCC5 / Fold change vs veh, BIVM-ERCC5 /// ERCC5 / RFU, ILF3 / Fold change vs veh, ILF3 / RFU 11762660_at / Fold change /veh 11762660_at / RFU VCAN (11757783_s_at) / Fold change /veh VCAN (11757783_s_at) / RFU DDX43 (11728927_at) / Fold change /veh DDX43 (11728927_at) / RFU KRT8 (11758188_x_at) / Fold change /veh KRT8 (11758188_x_at) / RFU NKD1 (11759106_at) / Fold change /veh NKD1 (11759106_at) / RFU SRD5A1 (11742802_a_at) / Fold change /veh SRD5A1 (11742802_a_at) / RFU TPSAB1 /// TPSB2 (11721975_s_at) / Fold change /veh TPSAB1 /// TPSB2 (11721975_s_at) / RFU GSTM3 (11746129_a_at) / Fold change /veh GSTM3 (11746129_a_at) / RFU IL23R (11737362_x_at) / Fold change /veh IL23R (11737362_x_at) / RFU TMEM51 (11727254_a_at) / Fold change /veh TMEM51 (11727254_a_at) / RFU PIWIL2 (11732686_x_at) / Fold change /veh PIWIL2 (11732686_x_at) / RFU ORM1 (11744905_x_at) / Fold change /veh ORM1 (11744905_x_at) / RFU CCDC152 (11743942_at) / Fold change /veh CCDC152 (11743942_at) / RFU ECM1 (11717891_a_at) / Fold change /veh ECM1 (11717891_a_at) / RFU IL23R (11748794_a_at) / Fold change /veh IL23R (11748794_a_at) / RFU TNFAIP8L3 (11732012_x_at) / Fold change /veh TNFAIP8L3 (11732012_x_at) / RFU MBOAT4 (11741988_at) / Fold change /veh MBOAT4 (11741988_at) / RFU 11764193_at / Fold change /veh 11764193_at / RFU TMEM53 (11763286_at) / Fold change /veh TMEM53 (11763286_at) / RFU MAGEB2 (11727129_at) / Fold change /veh MAGEB2 (11727129_at) / RFU TMEM200A (11744735_a_at) / Fold change /veh TMEM200A (11744735_a_at) / RFU CCDC152 (11751479_a_at) / Fold change /veh CCDC152 (11751479_a_at) / RFU FAM211A (11726209_a_at) / Fold change /veh FAM211A (11726209_a_at) / RFU RGS16 (11746705_a_at) / Fold change /veh RGS16 (11746705_a_at) / RFU VCAN (11755009_s_at) / Fold change /veh VCAN (11755009_s_at) / RFU RHOB (11743442_s_at) / Fold change /veh RHOB (11743442_s_at) / RFU RGS16 (11720943_a_at) / Fold change /veh RGS16 (11720943_a_at) / RFU RGS16 (11720944_at) / Fold change /veh RGS16 (11720944_at) / RFU, VPS4B / Fold change vs veh, VPS4B / RFU, CREB1 / Fold change vs veh, CREB1 / RFU, DNAJC13 / Fold change vs veh, DNAJC13 / RFU, GNAQ / Fold change vs veh, GNAQ / RFU, CDK5R1 / Fold change vs veh, CDK5R1 / RFU, ZRANB3 / Fold change vs veh, ZRANB3 / RFU, CUL4A / Fold change vs veh, CUL4A / RFU, CCNY / Fold change vs veh, CCNY / RFU, UFL1 / Fold change vs veh, UFL1 / RFU, COG3 / Fold change vs veh, COG3 / RFU, DIAPH2 / Fold change vs veh, DIAPH2 / RFU, SKA2 / Fold change vs veh, SKA2 / RFU, AFF3 / Fold change vs veh, AFF3 / RFU, LMF1 / Fold change vs veh, LMF1 / RFU, IPO11 / Fold change vs veh, IPO11 / RFU, DFFB / Fold change vs veh, DFFB / RFU, FOXP1 / Fold change vs veh, FOXP1 / RFU, CARD8 / Fold change vs veh, CARD8 / RFU, STRN3 / Fold change vs veh, STRN3 / RFU, ADK / Fold change vs veh, ADK / RFU, RASSF2 / Fold change vs veh, RASSF2 / RFU, WIPF1 / Fold change vs veh, WIPF1 / RFU, LARP1B / Fold change vs veh, LARP1B / RFU, RASA1 / Fold change vs veh, RASA1 / RFU, RB1 / Fold change vs veh, RB1 / RFU, PPFIA1 / Fold change vs veh, PPFIA1 / RFU, MAT2A / Fold change vs veh, MAT2A / RFU, CCT5 / Fold change vs veh, CCT5 / RFU, WDR92 / Fold change vs veh, WDR92 / RFU, CUX1 / Fold change vs veh, CUX1 / RFU, TTC7A / Fold change vs veh, TTC7A / RFU, TMEM135 / Fold change vs veh, TMEM135 / RFU, DEPTOR / Fold change vs veh, DEPTOR / RFU, CPM / Fold change vs veh, CPM / RFU, DNAJB6 / Fold change vs veh, DNAJB6 / RFU, CACNA2D3 / Fold change vs veh, CACNA2D3 / RFU, DTX4 / Fold change vs veh, DTX4 / RFU, TFCP2 / Fold change vs veh, TFCP2 / RFU, GMCL1 /// GMCL1P1 / Fold change vs veh, GMCL1 /// GMCL1P1 / RFU, AEBP2 / Fold change vs veh, AEBP2 / RFU, SNHG1 /// SNORD22 /// SNORD25 /// SNORD26 /// SNORD27 /// SNORD28 /// SNORD29 /// SNORD31 / Fold change vs veh, SNHG1 /// SNORD22 /// SNORD25 /// SNORD26 /// SNORD27 /// SNORD28 /// SNORD29 /// SNORD31 / Fold change (Aza/veh), C12orf56 (ProbeSet 11735607_a_at) / Fold change (ACY-1035/veh), C12orf56 (ProbeSet 11735607_a_at) / Fold change (Aza/veh), FGFR1OP (ProbeSet 11751329_s_at) / Fold change (ACY-1035/veh), FGFR1OP (ProbeSet 11751329_s_at) / Fold change (Aza/veh), VPS36 (ProbeSet 11739960_a_at) / Fold change (ACY-1035/veh), VPS36 (ProbeSet 11739960_a_at) / RFU SYPL1 (11715823_x_at) / Fold change /veh SYPL1 (11715823_x_at) / RFU IGFBP7 (11715501_s_at) / Fold change /veh IGFBP7 (11715501_s_at) / RFU REEP3 (11722064_at) / Fold change /veh REEP3 (11722064_at) / RFU IGLL1 (11728026_x_at) / Fold change /veh IGLL1 (11728026_x_at): dose or concentration left out as unconfirmed
Conditions: MV-4-11 cells, 48 hours

Nc1ccc(-c2cccs2)cc1NC(=O)c1ccc2c(c1)cc(C1CC1)n2CCN1CCOCC1 [ACY-1035]
RFU CCDC152 (11743942_at): 5.45 RFU
